Experimental data from BindingDB's records for doi:10.1021/jm00050a008 (University of North Carolina, 1995).

Test: The compound was tested for affinity towards sigma-3 receptor

Row | SMILES | IC50 [nM]
1 | CCCN(C)C1Cc2ccccc2C(c2ccccc2)C1 (stereo not given) | 4.5
2 | CCCNC1Cc2ccccc2C(c2ccccc2)C1 (stereo not given) | 59
3 | CCCN(CCC)C1Cc2ccccc2C(c2ccccc2)C1 (stereo not given) | 13
4 | CNC1Cc2ccccc2C(c2ccccc2)C1 (stereo not given) | 79
5 | CCN(CC)C1Cc2ccccc2C(c2ccccc2)C1 (trans isomer) | 2.2
